From patent US7101900B2, “Benzyl amidoxime derivatives, intermediate products and method for their production and use as fungicides” (BASF Aktiengesellschaft, priority 1999, dated 2006)

Legend:
[1] = test system: powdery mildew of wheat (Erysiphe graminis forma specialis tritici); test: Activity against mildew of wheat (protective spray test on wheat seedlings); format: in vivo; conditions: wheat seedlings c.v. Kanzler, dusted with spores 24 hours after spray coating dried, visual, total leaf area, after 7 days, untreated 95
Experimental: Activity Against Mildew of Wheat
Leaves of wheat seedlings c.v. “Kanzler” which had been grown in pots were sprayed to run off point with an aqueous preparation of active compound which had been prepared from a stock solution comprising 10% of active compound, 63% of cyclohexanone and 27% of emulsifier, and, 24 hours after the spray coating had dried on, dusted with spores of powdery mildew of wheat (Erysiphe graminis forma specialis tritici). The test plants were then placed in a greenhouse at 20–24° C. and 60–90% relative atmospheric humidity. After 7 days, the extent of the mildew development was determined visually in percent infection of the total leaf area.

[2] = test system: cucumber mildew (Sphaerotheca fuliginea); test: Protective activity against cucumber mildew (spray test on cucumber seedlings); format: in vivo; conditions: cucumber seedlings c.v. Chinesische Schlange, inoculated 20 hours after spray coating dried, visual, total leaf area, after 20 days, untreated 90
Experimental: Protective Activity Against Cucumber Mildew
At the two-leaf stage, leaves of cucumber seedlings c.v. “Chinesische Schlange” which had been grown in pots were sprayed to run off point with an aqueous preparation of active compound which had been prepared from a stock solution comprising 10% of active compound, 63% of cyclohexanone and 27% of emulsifier. 20 hours after the spray coating had dried on, the plants were inoculated with an aqueous spore suspension of cucumber mildew (Sphaerotheca fuliginea). The plants were then cultivated in a greenhouse at 20–24° C. and 60–80% relative atmospheric humidity for 20 days. The extent of the mildew development was then determined visually in % infection of the total leaf area.

O=C(Cc1ccccc1)NC(Cc1c(Cl)cccc1Cl)=NOCC1CC1 [No. 1, O-cyclopropylmethyl N-phenylacetyl-(2,6-dichlorophenyl)-acetamidoxime]
% infection of the leaves after application of an aqueous preparation comprising 16 ppm of active compound [1]: 3% | % infection of the leaves after application of an aqueous preparation comprising 63 ppm of active compound [2]: 10%

O=C(Cc1ccccc1)NC(Cc1c(F)cccc1Cl)=NOCC1CC1 [No. 2, O-cyclopropylmethyl N-phenylacetyl-(2-chloro-6-fluorophenyl)-acetamidoxime]
% infection of the leaves after application of an aqueous preparation comprising 16 ppm of active compound [1]: 3% | % infection of the leaves after application of an aqueous preparation comprising 63 ppm of active compound [2]: 10%
